The source of these data is patent publication US20120077705A1, “Methods for Identifying Autophagy Inducing Compounds” (President and Fellows of Harvard College, priority 2007, published 2012).

Several values for one entry are separate records, joined by “and”; a condition that tells them apart may be missing. Equal entries are not always repeated. Where two headings read alike, the source gives them in different places.

Data set [1] has as its system FYVE-RFP. The experiment in a line: High-content analysis of FYVE-RFP fluorescence (PI(3)P level) in H4-FYVE cell line. The data set is classed as cell-based. The text has this: Class III PI(3)K Vps34 is a multifunctional protein. On the one hand, it catalyzes the phosphorylation of PI to generate PI(3)P and is of key importance in the endocytic and autophagosome membrane transport processes. At the same time, a compound formed from Vps34/beclin1 is involved in the regulation of autophagy initiation signaling. Therefore, while the autophagy process is taking place, the level of PtdIns(3)P should not be expected to decrease to a significant extent. A FYVE domain is a protein structure domain composed of approximately 70 amino acid residues and containing a zinc finger protein structure; it can bind specifically with PI(3)P. Generally, PI(3)P recruits proteins containing a FYVE domain in order to bind to the membrane of cellular organelles, and participate in protein trafficking and similar processes.
H4 cells were transfected with the fusion protein FYVP-red fluorescent protein (FYVE-RFP). After transfection, the cells were screened in order to obtain a suitable H4-FYVE cell line to be used as a screening platform to perform high-volume screening of compounds, which thereby indirectly reflected the effect of the compound on autophagy. Compounds which reduced FYVE-RFP fluorescence intensity were eliminated. In this experiment, change in the intensity, fluorescence and distribution of the protein marker FYVE-RFP recruited by PI(3)P before and after treatment with the potential autophagy inducing compound was assayed by high-content microscopic analysis.
DMSO was used to dilute, dissolve, and prepare a compound at different concentrations with each concentration repeated three times. A 96-well plate was inoculated with H4-FYVE cells at an appropriate density and treated with the compound for 2, 4, and 8 hours, respectively. […] If a compound affected FYVE expression or distribution, then this would be embodied precisely in the image and in the size and intensity of fluorescent spots and other numerical values.

Data set [2] has as its system long-lived proteins. The experiment in a line: Degradation of (3H) L-leucine labelled long-lived proteins in H4 cells. The data set is classed as cell-based. Particulars: relative to blank control. The text has this: The process of autophagy is a protein degradation process, which primarily mediates the degradation of cellular organelles and long-lived proteins within the cell. Therefore, in the present experiment the detection of whether a compound promotes the degradation of long-lived proteins within the cell was used as an additional indicator of whether the tested compound induces autophagy.
DMSO was used to dilute, dissolve, and prepare a compound at different concentrations with each concentration repeated three times. A 96-well plate was inoculated with H4 cells at an appropriate density and treated with the compound for 2, 4, and 24 hours, respectively. […] One day prior to the experiment, cells were inoculated onto a 12-well plate at an appropriate density and cultured under normal conditions (DMEM +10% fetal calf serum). […] Then, a complete medium containing (3H) L-leucine was used to incubate the cells for 24 hours causing the cells to take in isotope-labeled leucine and undertake protein synthesis. After 24 hours, a complete culture medium was substituted and used to incubate the cells for 24 hours to degrade short-lived proteins. After the short-lived proteins had been degraded, a complete culture medium to which the compound had been added was substituted and used to incubate the cells. The radiation intensity of the culture medium was tested at 0, 1, 2, 4, and 24 hours, respectively. At 24 hours, the cells were collected and the intensity of the isotope within the cells was tested, and the percent of long-lived protein degradation relative to the blank control group at different times after the action of the compound was computed. Compounds that increased the degradation of long-lived proteins were selected by means oft-test.

Data set [3] deals with LC3 II. The experiment in a line: Western blot of LC3 II in H4-LC cells. The format is cell-based. The text has this: The autophagosome marker LC3 used in the compound-screening platform was subjected to the foregoing processing in the cytosol. Generally when the new LC3 synthesized within the cell was processed, it became cytosolic soluble LC3 I with molecular weight 18 Kd. […] The quantity of LC3 II content reflects to a certain degree the autophagic activity of a cell. Therefore, by assaying the content of LC3 II in the cell by means of the Western blot method, it is possible to further reflect the effect of the compound on autophagy.
H4-LC cells at an appropriate density were inoculated onto a 6-well plate, which was treated with a compound for 4 hours, after which the cells were collected and lysed. The protein fraction was harvested and SDS-PAGE was performed. Following electrophoresis separation the proteins were transferred to a membrane, and immunoblot analysis was performed. The cytoskeleton protein, actin, was used as an internal control.
(In general: In western blotting, separated proteins are transferred to a membrane and probed.)

Data set [4] deals with GFP-polyQ-HA. The experiment in a line: Degradation of expanded polyglutamine (GFP-polyQ-HA) in transfected H4 cells, anti-HA blot. The data set is classed as cell-based. As to the method:
Large-scale accumulation of misfolded protein is a prominent feature of many neurodegenerative diseases. For example, the pathogenic mechanism of Huntington's disease is that a large amount of polyglutamine (polyQ) protein accumulates in the neurons and cannot be cleared away. Tests of polyQ elimination and degradation were used in this experiment to further determine the ability if the tested compounds to induce autophagy.
The compounds selected through screening were dissolved in DMSO and diluted in a stepwise manner in complete culture medium.

The test system of data set [5] is H4-LC3 cells. The data set is classed as cell-based. The text has this: H4 cells were transfected with the LC3-GFP fusion protein, thereby creating, screening, and yielding an H4-LC3 cell line as a screening platform in order to perform high-content screening of 480 known bioactive compounds (ICCB known bioactive library, BIOMOL), using the following method. DMSO was used to dilute, dissolve, and prepare a compound at different concentrations with each concentration repeated three times. A 96-well plate was inoculated with H4-LC3 cells at an appropriate density and treated for 24 hours with the compound. […] If a compound affected LC3 expression or distribution, then this would be embodied precisely in the image and in the size and intensity of fluorescent spots and the like numerical values. This experiment was repeated three times, and the 72 compounds for which LC3-GFP fluorescent intensity was more than 50% greater than that of the blank control group in the three experiments were selected for analysis. Based on the number of cells determined through counting, those compounds in which cell death exceeded 30% (in comparison with the control group) were eliminated. The remaining compounds were further studied as candidate molecules.

In data set [6] the test system is Ca2+-activated K+ channels. As to conditions: 10-nM penitrem A; cited from earlier work.
The mark [7] stands for this setting: H4-LC cells, 4 hours, immunoblot, FIG. 1.
[8] abbreviates: H4 cells transfected with GFP-polyQ-HA, 24 hours, screening concentration and dilutions 1:2.5, 1:5, 1:10, FIG. 2.

`CN1CCN(CCCN2c3ccccc3Sc3ccc(C(F)(F)F)cc32)CC1` [Trifluoperazine]: the “Relative fluorescent intensity of FYVE-RFP (%)” value in data set [1] (H4-FYVE cells, 2 h) is recorded as 136.58 ± 15.74%; in data set [1] (H4-FYVE cells, 4 h), 111.52 ± 13.45%; in data set [1] (H4-FYVE cells, 8 h), 94.28 ± 2.87%. Besides, the “Percent relative degradation of long-lived proteins (%)” value (“Percent relative degradation … (%)” below) in data set [2] (1 h) stood at 76.62 ± 2.32%; in data set [2] (2 h), 105.60 ± 5.01%; in data set [2] (4 h), 109.00 ± 5.22%; in data set [2] (24 h), 124.78 ± 2.05%. In data set [3] (setting [7]), the “Increase of endogenous LC3 II / LC3 II/LC3 I percentage” value was “increase of endogenous LC3 II”. Moreover, the polyQ degradation entry in data set [4] (setting [8]) is “increased polyQ degradation”.
In the case of `C=C(C)[C@H]1O[C@H]2CC[C@@]3(C)[C@@](O)(CC[C@H]4[C@@H]5OC(C)(C)[C@H]6C[C@@H]7C(=C)Cc8c(Cl)cc9[nH]c(c5c9c8[C@@]76O)[C@@]43C)[C@]23O[C@@H]3[C@H]1O` [Penitrem A], the “Destruction of H4 cells” value in data set [5] (H4 cells) is listed as “does not destroy H4 cells”. Moreover, the “Relative fluorescent intensity of FYVE-RFP (%)” value in data set [1] (H4-FYVE cells, 2 h) was found to be 121.40 ± 12.66%; in data set [1] (H4-FYVE cells, 4 h), 87.41 ± 5.90%; in data set [1] (H4-FYVE cells, 8 h) it was 72.71 ± 5.57%. Also, the “Percent relative degradation … (%)” value turned out to be 92.88 ± 2.83% in data set [2] (1 h), 126.09 ± 0.47% in data set [2] (2 h), 132.13 ± 10.01% in data set [2] (4 h) and 141.83 ± 1.25% in data set [2] (24 h). Moreover, in data set [3] (setting [7]), the “Increase of endogenous LC3 II / LC3 II/LC3 I percentage” value is “increase of endogenous LC3 II”. In addition, the polyQ degradation result in data set [4] (setting [8]) is given as “increased polyQ degradation”. The “Blockage of Ca2+-activated K+ channels” value in data set [6] is recorded as 100%.
For the molecule `COC(=O)C1=C(C)NC(C)=C(C(=O)OCCN(C)Cc2ccccc2)C1c1cccc([N+](=O)[O-])c1.Cl` (centres unmarked) [Nicardipine], the “Relative fluorescent intensity of FYVE-RFP (%)” value came to 132.05 ± 19.93% in data set [1] (H4-FYVE cells, 2 h); 112.51 ± 10.09% in data set [1] (H4-FYVE cells, 4 h); 104.77 ± 31.63% in data set [1] (H4-FYVE cells, 8 h). The “Percent relative degradation … (%)” value in data set [2] (1 h) came to 84.62 ± 4.48%; in data set [2] (2 h), 126.59 ± 3.83%; in data set [2] (4 h) it was 122.60 ± 7.70%; in data set [2] (24 h), 121.03 ± 13.43%. The “Increase of endogenous LC3 II / LC3 II/LC3 I percentage” value in data set [3] (setting [7]) is recorded as “increase of endogenous LC3 II”. For the same molecule, in data set [4] (setting [8]), the polyQ degradation result is “increased polyQ degradation”.
Take `CCCCc1oc2ccccc2c1C(=O)c1cc(I)c(OCCN(CC)CC)c(I)c1.Cl` [Amiodarone]: the “Relative fluorescent intensity of FYVE-RFP (%)” value in data set [1] was 92.50 ± 5.51% and 89.23 ± 3.47% and 83.45 ± 3.64%. The “Percent relative degradation … (%)” value in data set [2] (1 h) is listed as 101.32 ± 5.95%; in data set [2] (2 h), 122.42 ± 9.71%; in data set [2] (4 h), 110.75 ± 3.68%; in data set [2] (24 h), 116.73 ± 5.54%. The “Increase of endogenous LC3 II / LC3 II/LC3 I percentage” value in data set [3] (setting [7]) is “increase of endogenous LC3 II”. The polyQ degradation result in data set [4] is reported as “increased polyQ degradation”.
Consider `O=c1[nH]c2ccccc2n1C1CCN(CCCC(c2ccc(F)cc2)c2ccc(F)cc2)CC1` [Pimozide], for which the “Relative fluorescent intensity of FYVE-RFP (%)” value in data set [1] (H4-FYVE cells, 2 h) amounted to 94.42 ± 4.71%; in data set [1] (H4-FYVE cells, 4 h), 103.96 ± 9.06%; in data set [1] (H4-FYVE cells, 8 h) it was 73.64 ± 12.18%. The “Percent relative degradation … (%)” value is given as 129.13 ± 11.46% in data set [2] (1 h), 155.80 ± 9.22% in data set [2] (2 h), 152.01 ± 9.63% in data set [2] (4 h) and 162.47 ± 3.50% in data set [2] (24 h). In data set [3] (setting [7]), the “Increase of endogenous LC3 II / LC3 II/LC3 I percentage” value was “increase of endogenous LC3 II”. In data set [4] (setting [8]), the polyQ degradation result is “increased polyQ degradation”.
As for `COC(=O)C1=C(C)NC(C)=C(C(=O)OCCCN2CCC(c3ccccc3)(c3ccccc3)CC2)C1c1cccc([N+](=O)[O-])c1.Cl` (centres unmarked) [Niguldipine], in data set [5] (human), the “Relative quantity of cells (%)” value is listed as 132.78 ± 18.11%. Further, the “Relative fluorescent intensity of FYVE-RFP (%)” value in data set [1] is 147.18 ± 25.39% and 148.26 ± 3.67% and 125.53 ± 2.84%. Besides, the “Percent relative degradation … (%)” value in data set [2] (1 h) is 71.65 ± 2.68%; in data set [2] (2 h), 107.42 ± 2.72%; in data set [2] (4 h), 105.68 ± 2.74%; in data set [2] (24 h), 117.85 ± 1.98%. The “Increase of endogenous LC3 II / LC3 II/LC3 I percentage” value in data set [3] is given as “increase of endogenous LC3 II”. Moreover, the polyQ degradation entry in data set [4] is given as “increased polyQ degradation”.
